PMC7614683, “A small molecule PI3Kα activator for cardioprotection and neuroregeneration” (Nature, 2023)
Like-named read-outs stand apart in the source and are kept apart here.

Experiments:
Assay in all cases: SelectScreen Z-LYTE kinase activity assay (SI Table 6)
Assay type in all cases: biochemical
[1] = target: protein kinases of the Z-LYTE panel (Homo sapiens, UniProt P06493)
Outline: (§1)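 A single compound concentration of 1 μM was profiled in the vendor's Adapta, Lantha and Z-LYTE kinase assays. In gel-based follow-ups with 200 μM compound, phosphorylation was resolved on Phos-tag SDS-PAGE and quantified by Coomassie. The ATM run used 1 mM ATP with GST-p53 for 30 min, and the mTORC1 run used 250 μM ATP with 4E-BP1 for 3 h.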

[2] = target: protein kinases of the Z-LYTE panel (Homo sapiens, UniProt P08069)
Outline: as §1

[3] = target: protein kinases of the Z-LYTE panel (Homo sapiens, UniProt P08581)
Outline: as §1

[4] = target: protein kinases of the Z-LYTE panel (Homo sapiens, UniProt P12931)
Outline: as §1

[5] = target: protein kinases of the Z-LYTE panel (Homo sapiens, UniProt P24941)
Outline: as §1

[6] = target: protein kinases of the Z-LYTE panel (Homo sapiens, UniProt P53350)
Outline: as §1

[7] = target: protein kinases of the Z-LYTE panel (Homo sapiens, UniProt P54756)
Outline: as §1

[8] = target: protein kinases of the Z-LYTE panel (Homo sapiens, UniProt P80192)
Outline: as §1

[9] = target: T1, protein kinases of the Z-LYTE panel (Homo sapiens, UniProt Q13043)
T1 sequence (Q13043 1-487): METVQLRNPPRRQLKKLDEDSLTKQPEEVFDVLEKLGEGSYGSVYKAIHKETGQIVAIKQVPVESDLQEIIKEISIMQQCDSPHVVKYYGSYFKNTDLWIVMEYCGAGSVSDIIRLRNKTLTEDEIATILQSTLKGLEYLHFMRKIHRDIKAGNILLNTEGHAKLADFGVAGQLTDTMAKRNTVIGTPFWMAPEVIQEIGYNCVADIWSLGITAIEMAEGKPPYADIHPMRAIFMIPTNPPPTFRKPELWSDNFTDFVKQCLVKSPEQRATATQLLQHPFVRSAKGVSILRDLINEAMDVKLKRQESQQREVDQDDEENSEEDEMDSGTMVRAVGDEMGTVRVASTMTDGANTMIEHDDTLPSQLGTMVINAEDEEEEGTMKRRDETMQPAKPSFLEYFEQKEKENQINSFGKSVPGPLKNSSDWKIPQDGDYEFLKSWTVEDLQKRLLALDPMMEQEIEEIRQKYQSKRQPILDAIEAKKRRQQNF
Outline: as §1

[10] = target: protein kinases of the Z-LYTE panel (Homo sapiens, UniProt Q13464)
Outline: as §1

Sequence of protein kinases of the Z-LYTE panel (Homo sapiens, UniProt P80192) (P80192 whole entry): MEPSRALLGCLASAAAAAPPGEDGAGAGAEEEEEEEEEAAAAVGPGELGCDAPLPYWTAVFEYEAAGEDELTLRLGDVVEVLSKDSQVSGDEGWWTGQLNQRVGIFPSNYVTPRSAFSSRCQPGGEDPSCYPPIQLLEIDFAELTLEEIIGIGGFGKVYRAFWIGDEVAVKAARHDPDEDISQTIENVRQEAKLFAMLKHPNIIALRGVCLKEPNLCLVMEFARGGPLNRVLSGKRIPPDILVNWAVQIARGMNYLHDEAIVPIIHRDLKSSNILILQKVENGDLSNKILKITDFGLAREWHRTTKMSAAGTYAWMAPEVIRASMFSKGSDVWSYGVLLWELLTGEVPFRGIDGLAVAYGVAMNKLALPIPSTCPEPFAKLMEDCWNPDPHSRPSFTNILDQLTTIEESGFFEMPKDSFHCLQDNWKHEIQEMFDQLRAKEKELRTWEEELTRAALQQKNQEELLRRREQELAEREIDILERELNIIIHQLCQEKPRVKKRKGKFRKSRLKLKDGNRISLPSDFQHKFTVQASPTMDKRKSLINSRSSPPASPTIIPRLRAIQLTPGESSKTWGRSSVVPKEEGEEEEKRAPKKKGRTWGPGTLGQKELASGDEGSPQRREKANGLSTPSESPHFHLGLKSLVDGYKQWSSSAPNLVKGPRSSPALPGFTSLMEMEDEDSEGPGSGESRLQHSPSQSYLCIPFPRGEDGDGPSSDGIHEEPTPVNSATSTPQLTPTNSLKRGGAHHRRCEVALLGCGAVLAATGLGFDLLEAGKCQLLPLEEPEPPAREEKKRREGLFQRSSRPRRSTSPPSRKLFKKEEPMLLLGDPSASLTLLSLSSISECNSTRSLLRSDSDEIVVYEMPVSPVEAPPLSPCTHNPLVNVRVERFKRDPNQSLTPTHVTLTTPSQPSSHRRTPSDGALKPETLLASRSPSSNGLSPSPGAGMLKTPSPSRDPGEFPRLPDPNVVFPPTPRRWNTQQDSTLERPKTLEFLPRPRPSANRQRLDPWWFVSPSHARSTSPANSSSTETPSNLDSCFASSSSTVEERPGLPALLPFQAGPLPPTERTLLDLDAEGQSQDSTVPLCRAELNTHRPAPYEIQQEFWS
Sequence of protein kinases of the Z-LYTE panel (Homo sapiens, UniProt P12931) (P12931 whole entry): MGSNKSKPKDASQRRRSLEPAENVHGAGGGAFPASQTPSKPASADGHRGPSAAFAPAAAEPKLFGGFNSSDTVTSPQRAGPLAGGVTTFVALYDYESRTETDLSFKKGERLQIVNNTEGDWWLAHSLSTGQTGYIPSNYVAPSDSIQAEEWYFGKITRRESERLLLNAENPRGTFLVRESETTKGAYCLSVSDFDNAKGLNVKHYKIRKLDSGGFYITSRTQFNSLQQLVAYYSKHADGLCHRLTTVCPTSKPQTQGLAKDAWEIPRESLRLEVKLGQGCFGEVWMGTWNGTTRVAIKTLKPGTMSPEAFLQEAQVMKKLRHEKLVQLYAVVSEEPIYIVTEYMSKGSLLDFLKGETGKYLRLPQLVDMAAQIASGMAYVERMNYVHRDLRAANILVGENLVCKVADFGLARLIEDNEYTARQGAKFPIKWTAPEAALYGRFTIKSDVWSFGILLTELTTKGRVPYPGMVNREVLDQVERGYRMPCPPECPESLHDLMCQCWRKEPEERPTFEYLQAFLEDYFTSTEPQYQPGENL
Sequence of protein kinases of the Z-LYTE panel (Homo sapiens, UniProt P08581) (P08581 25-1390): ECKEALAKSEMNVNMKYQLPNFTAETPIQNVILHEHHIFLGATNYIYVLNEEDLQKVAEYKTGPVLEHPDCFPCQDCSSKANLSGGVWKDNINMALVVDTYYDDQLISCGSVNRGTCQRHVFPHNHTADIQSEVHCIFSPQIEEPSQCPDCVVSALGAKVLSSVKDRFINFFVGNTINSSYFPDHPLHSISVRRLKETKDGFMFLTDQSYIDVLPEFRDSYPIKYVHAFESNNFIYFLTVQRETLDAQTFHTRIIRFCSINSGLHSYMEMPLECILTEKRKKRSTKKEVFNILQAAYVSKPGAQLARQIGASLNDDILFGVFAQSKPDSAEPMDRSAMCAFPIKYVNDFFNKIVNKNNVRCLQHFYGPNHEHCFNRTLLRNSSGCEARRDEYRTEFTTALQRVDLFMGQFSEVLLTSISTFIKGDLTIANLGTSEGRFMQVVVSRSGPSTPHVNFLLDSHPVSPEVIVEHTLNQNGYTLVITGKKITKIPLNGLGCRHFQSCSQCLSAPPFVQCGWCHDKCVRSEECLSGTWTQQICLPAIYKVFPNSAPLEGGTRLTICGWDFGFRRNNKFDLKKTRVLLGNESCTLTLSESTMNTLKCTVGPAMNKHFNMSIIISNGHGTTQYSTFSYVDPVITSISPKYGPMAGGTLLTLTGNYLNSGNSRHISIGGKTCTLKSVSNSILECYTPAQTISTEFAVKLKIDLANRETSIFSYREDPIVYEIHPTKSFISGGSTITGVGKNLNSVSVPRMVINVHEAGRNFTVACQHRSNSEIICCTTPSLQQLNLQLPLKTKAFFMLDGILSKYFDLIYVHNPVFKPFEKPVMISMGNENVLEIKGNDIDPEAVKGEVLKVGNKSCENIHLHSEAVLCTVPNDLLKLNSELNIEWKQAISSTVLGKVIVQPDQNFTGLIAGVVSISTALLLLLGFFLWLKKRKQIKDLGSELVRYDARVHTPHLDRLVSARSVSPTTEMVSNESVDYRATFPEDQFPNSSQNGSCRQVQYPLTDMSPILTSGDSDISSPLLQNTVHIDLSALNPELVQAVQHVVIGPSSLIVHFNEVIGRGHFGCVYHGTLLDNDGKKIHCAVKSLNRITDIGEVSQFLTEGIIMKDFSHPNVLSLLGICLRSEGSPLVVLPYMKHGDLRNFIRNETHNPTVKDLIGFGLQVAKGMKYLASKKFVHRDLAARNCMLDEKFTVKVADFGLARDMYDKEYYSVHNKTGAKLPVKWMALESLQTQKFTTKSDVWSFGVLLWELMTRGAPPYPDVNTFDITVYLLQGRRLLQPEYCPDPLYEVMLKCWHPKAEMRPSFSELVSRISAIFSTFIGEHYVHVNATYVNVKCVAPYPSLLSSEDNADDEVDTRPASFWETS
Sequence of protein kinases of the Z-LYTE panel (Homo sapiens, UniProt P08069) (P08069 31-1367): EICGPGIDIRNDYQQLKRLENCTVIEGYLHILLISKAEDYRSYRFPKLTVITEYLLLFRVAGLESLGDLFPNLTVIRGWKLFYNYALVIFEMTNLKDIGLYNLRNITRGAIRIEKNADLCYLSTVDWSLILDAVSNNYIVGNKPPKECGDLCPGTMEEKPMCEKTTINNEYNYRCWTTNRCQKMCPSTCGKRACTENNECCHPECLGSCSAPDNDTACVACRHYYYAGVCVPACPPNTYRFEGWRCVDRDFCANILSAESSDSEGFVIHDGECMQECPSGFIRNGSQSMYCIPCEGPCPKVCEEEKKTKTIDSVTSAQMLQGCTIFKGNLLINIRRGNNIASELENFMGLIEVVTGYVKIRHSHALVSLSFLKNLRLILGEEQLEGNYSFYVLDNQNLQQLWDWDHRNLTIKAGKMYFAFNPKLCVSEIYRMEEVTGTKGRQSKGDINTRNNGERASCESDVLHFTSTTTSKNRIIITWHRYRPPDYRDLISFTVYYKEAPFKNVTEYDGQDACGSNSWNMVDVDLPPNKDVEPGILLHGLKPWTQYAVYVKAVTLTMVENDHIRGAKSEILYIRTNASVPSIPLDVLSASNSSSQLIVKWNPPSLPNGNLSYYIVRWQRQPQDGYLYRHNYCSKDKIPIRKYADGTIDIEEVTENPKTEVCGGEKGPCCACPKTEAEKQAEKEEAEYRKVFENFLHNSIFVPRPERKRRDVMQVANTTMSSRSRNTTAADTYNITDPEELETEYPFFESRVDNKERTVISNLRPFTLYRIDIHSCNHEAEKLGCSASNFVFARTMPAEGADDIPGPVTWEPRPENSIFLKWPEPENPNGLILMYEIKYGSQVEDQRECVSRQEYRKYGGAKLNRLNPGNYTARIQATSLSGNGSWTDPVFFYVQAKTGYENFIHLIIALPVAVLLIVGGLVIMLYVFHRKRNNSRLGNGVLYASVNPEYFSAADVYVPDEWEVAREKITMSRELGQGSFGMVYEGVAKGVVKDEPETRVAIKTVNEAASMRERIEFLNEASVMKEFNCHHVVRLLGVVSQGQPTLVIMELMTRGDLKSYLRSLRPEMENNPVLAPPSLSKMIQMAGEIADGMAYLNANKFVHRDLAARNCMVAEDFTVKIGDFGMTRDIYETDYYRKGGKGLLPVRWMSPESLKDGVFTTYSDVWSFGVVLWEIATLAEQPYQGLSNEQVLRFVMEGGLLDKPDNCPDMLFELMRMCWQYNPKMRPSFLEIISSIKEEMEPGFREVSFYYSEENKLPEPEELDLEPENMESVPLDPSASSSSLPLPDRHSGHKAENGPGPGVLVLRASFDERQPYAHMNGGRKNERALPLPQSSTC
Sequence of protein kinases of the Z-LYTE panel (Homo sapiens, UniProt P53350) (P53350 whole entry): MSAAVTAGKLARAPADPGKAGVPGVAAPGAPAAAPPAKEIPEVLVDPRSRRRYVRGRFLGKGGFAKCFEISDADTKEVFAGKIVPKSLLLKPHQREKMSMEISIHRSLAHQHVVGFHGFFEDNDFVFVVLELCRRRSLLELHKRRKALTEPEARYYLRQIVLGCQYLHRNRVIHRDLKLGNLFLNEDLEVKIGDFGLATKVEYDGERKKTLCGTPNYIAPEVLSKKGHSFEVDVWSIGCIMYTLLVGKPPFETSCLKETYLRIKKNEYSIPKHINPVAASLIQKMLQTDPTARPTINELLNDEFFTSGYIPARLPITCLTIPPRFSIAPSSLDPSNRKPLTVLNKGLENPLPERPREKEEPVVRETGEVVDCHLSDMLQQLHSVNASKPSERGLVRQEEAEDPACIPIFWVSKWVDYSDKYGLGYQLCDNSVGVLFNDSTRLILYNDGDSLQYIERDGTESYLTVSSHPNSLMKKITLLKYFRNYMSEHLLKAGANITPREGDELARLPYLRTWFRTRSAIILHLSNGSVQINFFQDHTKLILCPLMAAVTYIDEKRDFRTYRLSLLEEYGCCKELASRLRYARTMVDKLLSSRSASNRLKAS

SMILES: CCN1CCN(c2ccc(Nc3cc(Nc4cccc5c4N(C(C)=O)CC5)ccn3)cc2)CC1 [Compound 1938]
- inhibition at 1 µM ([1]; read-out: % Inhibition Point 1): 5.46%
- inhibition at 1 µM ([1]; read-out: % Inhibition Point 2): 3.74%
- inhibition at 1 µM ([1]; read-out: % Inhibition mean): 4.6%
- inhibition at 1 µM ([2]; read-out: % Inhibition Point 1): 5.5%
- inhibition at 1 µM ([2]; read-out: % Inhibition Point 2): 5.33%
- inhibition at 1 µM ([2]; read-out: % Inhibition mean): 5.41%
- inhibition at 1 µM ([3]; read-out: % Inhibition Point 1): 8%
- inhibition at 1 µM ([3]; read-out: % Inhibition Point 2): 29%
- inhibition at 1 µM ([3]; read-out: % Inhibition mean): 19%
- inhibition at 1 µM ([4]; read-out: % Inhibition Point 1): 28%
- inhibition at 1 µM ([4]; read-out: % Inhibition Point 2): 29%
- inhibition at 1 µM ([4]; read-out: % Inhibition mean): 29%
- inhibition at 1 µM ([5]; read-out: % Inhibition Point 1): 1.74%
- inhibition at 1 µM ([5]; read-out: % Inhibition Point 2): 3.28%
- inhibition at 1 µM ([5]; read-out: % Inhibition mean): 2.51%
- inhibition at 1 µM ([6]; read-out: % Inhibition Point 1): 2.86%
- inhibition at 1 µM ([6]; read-out: % Inhibition Point 2): 3.28%
- inhibition at 1 µM ([6]; read-out: % Inhibition mean): 3%
- inhibition at 1 µM ([7]; read-out: % Inhibition Point 1): 4.24%
- inhibition at 1 µM ([7]; read-out: % Inhibition Point 2): 1.52%
- inhibition at 1 µM ([7]; read-out: % Inhibition mean): 3%
- inhibition at 1 µM ([8]; read-out: % Inhibition Point 1): 6.46%
- inhibition at 1 µM ([8]; read-out: % Inhibition Point 2): 4%
- inhibition at 1 µM ([8]; read-out: % Inhibition mean): 5%
- inhibition at 1 µM ([9]; read-out: % Inhibition Point 1): 4%
- inhibition at 1 µM ([9]; read-out: % Inhibition Point 2): 1.07%
- inhibition at 1 µM ([9]; read-out: % Inhibition mean): 2.46%
- inhibition at 1 µM ([10]; read-out: % Inhibition Point 1): 0.45%
- inhibition at 1 µM ([10]; read-out: % Inhibition Point 2): 0.0147%
- inhibition at 1 µM ([10]; read-out: % Inhibition mean): 0.233%
